How the values were obtained:
Assay type in all cases: in vitro ADME
[1] = target: T1, UGT1A7 (Homo sapiens, UniProt Q9HAW7); experiment: Reaction phenotyping with recombinant human UGT enzymes: UGT1A7; settings: rUGT1A7 0.25 mg protein/mL, 10 μmol/L, 60 minutes, n = 2
T1 construct: purchased BD Biosciences; host or cells: baculovirus-infected insect cells
T1 sequence (Q9HAW7 26-530): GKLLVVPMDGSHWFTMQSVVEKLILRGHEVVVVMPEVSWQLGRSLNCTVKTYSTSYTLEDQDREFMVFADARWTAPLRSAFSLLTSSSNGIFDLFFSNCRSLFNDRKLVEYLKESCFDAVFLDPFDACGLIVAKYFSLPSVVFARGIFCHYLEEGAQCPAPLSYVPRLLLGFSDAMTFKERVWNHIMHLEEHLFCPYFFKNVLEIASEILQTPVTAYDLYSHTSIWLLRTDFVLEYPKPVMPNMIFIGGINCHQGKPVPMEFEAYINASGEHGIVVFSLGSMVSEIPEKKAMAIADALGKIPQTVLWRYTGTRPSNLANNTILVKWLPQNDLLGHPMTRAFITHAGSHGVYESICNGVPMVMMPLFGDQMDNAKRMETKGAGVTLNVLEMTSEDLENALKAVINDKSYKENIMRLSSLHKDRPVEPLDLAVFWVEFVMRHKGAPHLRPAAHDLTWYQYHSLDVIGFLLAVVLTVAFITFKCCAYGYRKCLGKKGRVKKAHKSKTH
Experimental: Ataluren at 10 μmol/L, was incubated (n = 2) with recombinant human uridine diphosphate glucuronosyltransferase (rUGT) enzymes: rUGTs 1A1, 1A3, 1A4, 1A6, 1A7, 1A8, 1A9, 1A10, 2B4, 2B7, 2B15, and 2B17 at 0.25 mg protein/mL. Incubations were conducted in duplicate at 37°C. The incubation mixture (0.2 mL, final volume with 1% methanol) consisted of Tris‐HCl buffer (100 mmol/L, pH 7.7 at 37°C), MgCl2 (10 mmol/L), EDTA (1 mmol/L), saccharic acid 1,4‐lactone (0.1 mmol/L), and UDPGA (8 mmol/L). […] Samples were subjected to centrifugation (920 g for 10 minutes at 10°C) and the supernatant fractions were analyzed by LC‐MS/MS to quantify the formation of ataluren‐O‐1β‐acyl glucuronide and loss of ataluren. […] The ataluren acyl glucuronide formation rate after 60 minutes incubation was calculated using the amount of metabolite formed (pmol) divided by the protein amount in the incubation sample (0.05 mg) and the incubation time (60 minutes).
Quantification of ataluren loss and ataluren‐O‐1β‐acyl glucuronide formation was carried out with an LC‐MS/MS system, which consisted of two Shimadzu LC‐10ADvp pumps, a SPD10‐AVP UV/Vis detector, a Shimadzu SILHTA autosampler, a Shimadzu DGU‐14A degasser, and a Sciex API 4000 QTRAP mass spectrometer equipped with a Turbo Ionspray ionization source that operated in positive ionization mode. […]

[2] = tested on: CYP2A6; experiment: CYP induction in primary human hepatocytes: CYP2A6; settings: Coumarin 7-hydroxylase, 48 hours, n=3
Experimental: Human hepatocytes isolated from three Caucasian males were transferred to 48‐well collagen‐coated plates at 0.14 × 10^6 cells/well in planting media for attachment. After attachment, planting media was replaced with sandwich media and the cells were incubated until clusters were established. […] The incubation solutions were aspirated and replaced with freshly prepared incubation solutions containing ataluren for an additional 24 hours. […] The incubation solutions were then aspirated and 150 µL of K‐H buffer containing CYP substrates were added. The hepatocytes were incubated for 30 minutes for CYP2C8 (10 µmol/L amodiaquine), 1 hour for CYP3A4 (125 µmol/L testosterone), and 4 hours for CYPs 1A2 (100 µmol/L phenacetin), 2A6 (100 µmol/L coumarin), 2B6 (150 µmol/L bupropion), 2C9 (50 µmol/L tolbutamide), 2C19 (100 µmol/L S‐mephenytoin), and 2E1 (300 µmol/L chlorzoxazone) activity assays. The reactions were stopped by the addition of 0.15 mL of ice‐cold methanol except that coumarin‐treated cells were incubated with β‐glucuronidase and aryl sulfatase for additional 1 hour to free 7‐hydroxycoumarin before the addition of 0.2 mL of ice‐cold methanol. Metabolite formation in incubations with test compounds and control inhibitors was assessed with validated LC‐MS/MS methods for each of the reaction products as described in Table S2. Enzymatic activity for each CYP was calculated using the absolute amount of metabolite formed (pmol) divided by hepatocytes in the incubation (million cells) and the incubation time (minute). The relative fold induction in enzymatic activity was calculated by comparing the rate of metabolite formation for treatment groups to that of the solvent control group (reported as vehicle control%) or positive control group (reported as positive control%).

[3] = Glucuronidation in pooled human kidney microsomes; settings: kidney microsomes 1 mg protein/mL, 10 μmol/L, 60 minutes, n = 1
Experimental: Ataluren at 10 μmol/L, was incubated (n = 1) with pooled human intestinal, lung, and kidney microsomes (1 mg protein/mL, preactivated with alamethicin) to evaluate if ataluren‐O‐1β‐acyl glucuronide will be formed in these extrahepatic tissues. Incubation mixtures and procedures were essentially the same as the above. The supernatant fractions were analyzed by LC‐MS/MS to quantify the formation of ataluren‐O‐1β‐acyl glucuronide and the loss of ataluren. Detailed LC‐MS/MS conditions are summarized in LC‐MS/MS Analysis section. […] The ataluren acyl glucuronide formation rate after 60 minutes incubation was calculated using the amount of metabolite formed (pmol) divided by the protein amount in the incubation sample ([…]) and the incubation time (60 minutes).
Quantification of ataluren loss and ataluren‐O‐1β‐acyl glucuronide formation was carried out with an LC‐MS/MS system, which consisted of two Shimadzu LC‐10ADvp pumps, a SPD10‐AVP UV/Vis detector, a Shimadzu SILHTA autosampler, a Shimadzu DGU‐14A degasser, and a Sciex API 4000 QTRAP mass spectrometer equipped with a Turbo Ionspray ionization source that operated in positive ionization mode. […] Ion transitions monitored were at m/z 285 → m/z 123 for ataluren, m/z 461 → m/z 285 for ataluren acyl glucuronide, and m/z 289 → m/z 127 for ataluren‐D4 (internal standard), respectively.

## O=C(O)c1cccc(-c2noc(-c3ccccc3F)n2)c1 [ataluren, Ataluren]
[1]
  ataluren loss: 6.2%
[2]; ataluren 4 µM
  Vehicle control %, Mean: 100%
[2]; ataluren 40 µM
  Vehicle control %, Mean: 111%
[2]; ataluren 400 µM
  Vehicle control %, Mean: 118%
[3]
  ataluren loss: 94.3%
